IC50 data for one compound are collected here from BindingDB's records for doi:10.1021/cb500828m (Vanderbilt University, 2015).

In this assay the target is T1, Phospholipase D1 (Homo sapiens, UniProt Q13393).
T1 sequence (Q13393 whole entry): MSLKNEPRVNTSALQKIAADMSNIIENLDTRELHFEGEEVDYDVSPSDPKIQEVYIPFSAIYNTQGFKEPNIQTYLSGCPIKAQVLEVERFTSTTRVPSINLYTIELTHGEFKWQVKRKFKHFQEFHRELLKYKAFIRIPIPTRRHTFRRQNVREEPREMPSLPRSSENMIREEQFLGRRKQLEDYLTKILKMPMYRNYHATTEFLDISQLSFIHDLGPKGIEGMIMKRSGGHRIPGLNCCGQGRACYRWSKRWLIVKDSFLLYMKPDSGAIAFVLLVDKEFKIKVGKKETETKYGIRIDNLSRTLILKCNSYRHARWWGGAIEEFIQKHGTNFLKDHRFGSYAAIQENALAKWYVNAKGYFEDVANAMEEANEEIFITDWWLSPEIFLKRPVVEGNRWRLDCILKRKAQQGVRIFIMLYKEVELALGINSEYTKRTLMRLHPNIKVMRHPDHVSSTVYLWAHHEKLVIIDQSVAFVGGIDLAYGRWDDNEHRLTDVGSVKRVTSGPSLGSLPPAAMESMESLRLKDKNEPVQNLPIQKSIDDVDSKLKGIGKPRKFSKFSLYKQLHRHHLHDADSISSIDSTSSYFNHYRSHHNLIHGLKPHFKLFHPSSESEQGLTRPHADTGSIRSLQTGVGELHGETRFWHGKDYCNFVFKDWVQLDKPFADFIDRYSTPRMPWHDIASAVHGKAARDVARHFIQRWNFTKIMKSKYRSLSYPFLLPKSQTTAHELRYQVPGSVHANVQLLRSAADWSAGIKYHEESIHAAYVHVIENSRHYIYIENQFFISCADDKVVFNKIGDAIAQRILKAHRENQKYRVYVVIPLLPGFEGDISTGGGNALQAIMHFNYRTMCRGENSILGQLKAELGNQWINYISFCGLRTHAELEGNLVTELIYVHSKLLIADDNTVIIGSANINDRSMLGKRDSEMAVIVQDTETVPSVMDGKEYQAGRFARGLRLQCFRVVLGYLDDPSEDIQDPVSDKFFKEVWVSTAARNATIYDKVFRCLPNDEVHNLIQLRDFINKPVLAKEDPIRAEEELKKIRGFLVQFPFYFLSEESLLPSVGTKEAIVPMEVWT
Put plainly: In vivo Deuterated 1-Butanol PLD Assay. The procedure:
Cells were seeded into 12-well tissue culture plates to reach 90% confluence at the time of assay. All cell types, aside from the HEK293-gfpPLD2 cells, were serum-starved 18 h prior to experiment in DMEM, 0.5% FBS, 1% AA. Cells werepretreated in the presence of test compound (50 μM to 5 nM) or DMSO (vehicle control) in DMEM for 5 min at rt. After pretreatment, media was removed, and cells were treated with DMEM + 1 μM PMA + 0.3% 1-butanol-d10, and either test compound, DMSO vehicle control, or DMEM alone for 30 min at 37 °C. HEK293-gfpPLD2 cells were treated in the presence of DMEM + 0.3% 1-butanol-d10 and either test compound or DMSO but were not stimulated with PMA. After treatment, samples were extracted, and 1,2-dihexanoyl-snglycero-3-phosphomethanol ([…]) was added as an internal standard. The lipids were isolated, the solvent was evaporated, and the resulting lipid film was resuspended in MS solvent (9:1 methanol/chloroform + 1 μL of NH4OH). Samples were

Structures are written as SMILES.

`Oc1ccc(-c2sc3cc(O)ccc3c2-c2ccc(OCCN3CCCCC3)cc2)cc1` [Desketoraloxifene (10)] showed an IC50 of 6.1 µM.
